Reference: PMC11811597, “Phenomics‐Based Discovery of Novel Orthosteric Choline Kinase Inhibitors” (Angewandte Chemie (International Ed. in English), 2025)

Molecular target: T1, EHMT2 (G9a) (Homo sapiens, UniProt Q96KQ7)
T1 sequence (Q96KQ7 1-1210): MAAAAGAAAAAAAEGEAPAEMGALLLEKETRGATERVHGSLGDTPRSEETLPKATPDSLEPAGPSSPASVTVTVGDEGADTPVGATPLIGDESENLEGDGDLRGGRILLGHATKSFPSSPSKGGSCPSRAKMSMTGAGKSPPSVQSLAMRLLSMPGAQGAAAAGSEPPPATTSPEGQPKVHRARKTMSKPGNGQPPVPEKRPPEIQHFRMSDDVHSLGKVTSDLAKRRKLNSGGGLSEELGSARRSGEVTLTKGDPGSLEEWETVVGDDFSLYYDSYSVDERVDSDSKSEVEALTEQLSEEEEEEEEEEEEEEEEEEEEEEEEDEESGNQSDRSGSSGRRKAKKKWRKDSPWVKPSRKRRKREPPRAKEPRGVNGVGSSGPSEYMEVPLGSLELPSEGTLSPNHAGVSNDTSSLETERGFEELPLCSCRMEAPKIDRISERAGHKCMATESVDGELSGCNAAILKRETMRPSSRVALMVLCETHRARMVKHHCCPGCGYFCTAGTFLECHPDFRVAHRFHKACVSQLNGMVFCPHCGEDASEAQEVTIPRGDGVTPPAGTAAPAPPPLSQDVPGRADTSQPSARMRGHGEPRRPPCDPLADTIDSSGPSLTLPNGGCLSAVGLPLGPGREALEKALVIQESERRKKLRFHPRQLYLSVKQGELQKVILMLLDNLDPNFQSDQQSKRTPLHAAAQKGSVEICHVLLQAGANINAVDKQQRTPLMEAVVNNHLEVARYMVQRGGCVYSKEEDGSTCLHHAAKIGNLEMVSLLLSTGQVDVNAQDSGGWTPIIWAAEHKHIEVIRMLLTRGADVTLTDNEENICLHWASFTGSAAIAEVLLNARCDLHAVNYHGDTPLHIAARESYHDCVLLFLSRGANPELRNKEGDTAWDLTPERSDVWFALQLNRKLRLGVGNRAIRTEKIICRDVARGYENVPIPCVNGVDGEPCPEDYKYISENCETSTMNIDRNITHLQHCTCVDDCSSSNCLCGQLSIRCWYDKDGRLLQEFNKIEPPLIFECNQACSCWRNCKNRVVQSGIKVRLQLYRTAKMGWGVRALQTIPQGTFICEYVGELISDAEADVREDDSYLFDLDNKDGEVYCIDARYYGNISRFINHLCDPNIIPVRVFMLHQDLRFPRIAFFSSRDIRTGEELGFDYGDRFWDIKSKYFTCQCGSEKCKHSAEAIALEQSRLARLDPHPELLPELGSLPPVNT
Assay: Competitive affinity-based chemoproteomics (UNC0965 matrix), MCF7 lysate
Format: binding
Set-up: endogenous in cells; host or cells: MCF7 whole cell lysate
Conditions: MCF7 lysates, 20 μM competitor
Description: A-366 and UNC0638 were purchased from Tocris. ARIAD and V-11-07-11 were purchased from Wuxi Apptec. UNC0737 and UNC0965 were synthesised as previously described.[1] Hemicholinium-3 and pyruvate kinase/lactic dehydrogenase enzymes were purchased from Sigma Aldrich. Aqueous and organic solvents were MS-grade and acquired by Sigma Aldrich unless stated otherwise.
MDA-MB-231, MCF7 and HEK293 cells were cultured in DMEM (Gibco, #11965092) supplemented with 10% FBS. K562 were cultured in IMDM (Gibco, #12440053) supplemented with 10% FBS. HepG2 were cultured in MEM (Gibco, #11095080) supplemented with 10 % FBS. […]
cultured in McCoy’s 5A (Sigma, M8403) supplemented with 10 % FBS and 1x GlutaMAX (Gibco, #35050061). Cells were maintained at 37 °C in a humidified 5% CO2 atmosphere. Peripheral blood mononuclear cells (PBMC) were isolated from healthy blood donors by density centrifugation. […]
Cell Titer-Glo® reagent was added to each well and total luminescence readings were performed within 15 min using the PHERAstar FSX (BMG Labtech). […]
Digested samples were analysed by nano-UPLC–MS/MS using a Dionex Ultimate 3000 nano UPLC fitted with an EASY spray column (75 μm × 500 mm, 2 μm particle size, Thermo Scientific), coupled to an Orbitrap Q Exactive instrument. […]

| Compound | competition for EHMT2 (G9a) binding to affinity matrix |
| --- | --- |
| COc1cc2c(NC3CCN(C(C)C)CC3)nc(C3CCCCC3)nc2cc1OCCCN1CCCC1 [UNC0638] | strong enrichment and competition |
| COc1cc2c(N(C)C3CCN(C(C)C)CC3)nc(C3CCCCC3)nc2cc1OCCCN1CCCC1 [UNC0737] | did not ablate binding |
